Patent US20100120715A1, “BETA-LACTAMASE INHIBITORS” (priority 2007, published 2010)

Assays:
[1] = target: T1, Class A ESBL SHV-5 (Klebsiella pneumoniae, UniProt P0A3M1); assay type: biochemical, E. coli; conditions: purified beta-lactamase enzyme (Examples 1 and 31-64); nitrocefin 100 μM, PBS pH 7.0; read-out: SHV-5 IC50 Range
T1 construct: made in house; host or cells: E. coli BL21(DE3) for purified enzyme; E. coli cells containing SHV-5 for extracts
Procedure: (§1) Isolation of β-lactamases. For all examples, purified beta-lactamase enzymes were used to measure a compounds' ability to inhibit the Class A ESBL CTXM-15, the Class C P99 AmpC and the Class A carbapenemase KPC-2. […] The enzyme preparations are described herein.
For the preparation of SHV-5 extracts, E. coli cells containing SHV-5 were cultured overnight with shaking at a volume of 20 mL. They were further diluted 10-fold and grown to mid-log phase (OD at 600 nm, 0.5-0.8) in Mueller-Hinton II (MH-II) broth at 37° C. The cells were pelleted at 5000 g, washed and resuspended in 2 mL PBS pH 7.0. The β-lactamase was extracted by four cycles of freezing and thawing followed by centrifugation. β-lactamase activity in the extract was measured with the chromogenic cephalosporin nitrocefin. The amount of protein in each β-lactamase preparation was determined by the bicinchoninic acid (BCA) assay.
(§2) For the isolation and purification of SHV-5, p99 AmpC, KPC-2 and CTX-M15 β-lactamases, E. coli BL21(DE3) bacterial cells carrying expression plasmids (expressed as native untagged proteins) for the individual β-lactamases were grown in 1 L of Superbroth (Teknova Inc. Hollister, Calif.) supplemented with 100 μg/ml kanamycin and 1×5052 (0.5% glycerol, 0.05% glucose and 0.2% α-lactose) at 35° C. for 18-20 hours. Cells were harvested by centrifugation (4,000×g, 4° C., 20 min), and resuspended in 50 ml of 10 mM HEPES pH 7.5 ( 1/20 of the initial volume). The cells were lysed by sonication (5 pulses of 45 seconds) at 45 W on ice. The lysates were clarified by centrifugation at 10,000×g for 40 minutes at 4° C. Samples were diluted 5-fold in 50 mM sodium acetate pH 5.0, stored overnight at 4° C., after which they were centrifuged at 10,000×g for 30 minutes to clarify, and filtered through 0.45 μm filters. The samples were loaded onto a 5 ml Capto S sepharose cation exchange column (GE Healthcare) pre-equilibrated with 50 mM sodium acetate pH 5.0. The column was washed with 5 column volumes of 50 mM sodium acetate pH 5.0 to wash out unbound protein and a linear gradient of NaCl (0 to 500 mM) was used to elute the protein (over 16 CV) from the column. Fractions were assayed for β-lactamase activity using Centa (Calbiochem, Gibbstown, N.J.) as a reporter β-lactamase substrate for activity in the isolated fractions. Active fractions were pooled, concentrated and further purified by gel filtration chromatography on a Superdex 75 prep grade gel filtration column (GE Healthcare, Piscataway, N.J.) pre-equilibrated in 50 mM Hepes pH 7.5, 150 mM NaCl. Active fractions were pooled concentrated, quantitated by BCA protein determination (Thermo Scientific, Rockford, Ill.), and frozen at −80° C. in 20% glycerol until use.
(§3) β-lactamase Inhibition. To determine the level of inhibition of β-lactamaseenzymes, compounds were diluted in PBS at pH 7.0 to yield concentrations between 100 and 0.005 μM in microtiter plates. An equal volume of diluted enzyme stock was added, and the plates were incubated at 37° C. for 10 min. Nitrocefin solution was then dispensed as substrate into each well at a final concentration of 100 μM, and the plates were immediately read with the kinetic program at 486 nm for 10 min on the SPECTRAMAX® Plus^384 (high-throughput microplate spectrophotometer; Molecular Devices Corp., Sunnyvale, Calif.). Maximum rates of metabolism were then compared to those in control wells (without inhibitors), and percentages of enzyme inhibition were calculated for each concentration of inhibitor. The concentration of inhibitor needed to reduce the initial rate of hydrolysis of substrate by 50% (IC50) was calculated as the residual activity of β-lactamase at 486 nm using the SoftMax Pro 5.0 software (Molecular Devices Corp.).

[2] = target: T2, Class A carbapenemase KPC-2 (Klebsiella pneumoniae, UniProt Q9F663); experiment: β-lactamase enzyme inhibition (nitrocefin hydrolysis), KPC-2; assay type: biochemical; conditions: purified enzyme; nitrocefin 100 μM, PBS pH 7.0; read-out: KPC-2 IC50 Range
T2 construct: made in house; host or cells: E. coli BL21(DE3)
Procedure: as §1, §2, §3

[3] = system: E. coli expressing the Class A ESBL SHV-5; experiment: microbe, parasite or virus in culture; assay type: cell-based; conditions: in the presence of fixed 8 μg/mL Ceftazidime
Excerpt: (§4) To determine the ability of test compounds to potentiate the inhibition of the growth of bacterial strains producing beta-lactamase enzymes, classic cell based screening assays were employed. Four bacteria strains producing beta-lactamase enzymes were used: K. pneumoniae expressing the Class A Extended Spectrum Beta-Lactamase (ESBL) CTX-M-15, E. coli expressing the Class A ESBL SHV-5, E. cloacae expressing the Class C P99+, and K. pneumoniae expressing the Class A carbapenemase KPC-2. In order to evaluate the ability of test compounds to inhibit beta-lactamase activity, Applicants used a modification of the broth microdilution assay. The assay was conducted in Cation Adjusted Mueller Hinton Broth (CAMHB, BD # 212322, BD Diagnostic Systems, Sparks, Md.). Bacteria strains were grown for 3-5 hours in CAMBH broth. All four strains were grown in presence of 50 μg/mL ampicillin to ensure resistance is maintained. In the meantime, test compounds were diluted in DMSO to a 0.1 mg/mL stock. The compounds were added to a microtiter plate and were diluted in 2-fold serial dilutions in CAMHB in a final concentration range of 8 μg/mL to 0.015 μg/ml. An overlay of CAMHB containing a cephalosporin was added to the compounds at a final static concentration of 8 μg/ml. […] Each of these compound plates are made in quadruplicate, one for each bacteria strain. In addition to the titration of test compounds the MICs of a panel of cephalosporins is also tested to ensure the strains are behaving consistently from test to test. Once the test compound and cephalosporin are added the plates can be inoculated. Inocula are conducted according to CLSI broth microdilution method. After inoculation the plates are incubated for 16-20 hours at 37° C. then the Minimal Inhibitory Concentration (MIC) of the test compound is determined visually.

[4] = target: T3, Class A ESBL CTXM-15 (Escherichia coli, UniProt Q9EXV5); experiment: β-lactamase enzyme inhibition (nitrocefin hydrolysis), CTXM-15; assay type: biochemical; conditions: purified enzyme; nitrocefin 100 μM, PBS pH 7.0; read-out: CTXM-15 IC50 Range
T3 construct: made in house; host or cells: E. coli BL21(DE3)
Procedure: as §1, §2, §3

[5] = system: K. pneumoniae expressing the Class A carbapenemase KPC-2; experiment: microbe, parasite or virus in culture; conditions: in the presence of fixed 8 μg/mL Ceftazidime
Excerpt: as §4

[6] = target: T4, Class C P99 AmpC (Enterobacter cloacae, UniProt P05364); assay type: biochemical; conditions: purified enzyme; nitrocefin 100 μM, PBS pH 7.0; read-out: P99 AmpC IC50 Range
T4 construct: made in house; host or cells: E. coli BL21(DE3)
Procedure: as §1, §2, §3

[7] = system: K. pneumoniae expressing the Class A ESBL CTX-M-15; experiment: microbe, parasite or virus in culture; assay type: cell-based; conditions: in the presence of fixed 8 μg/mL Ceftazidime
Excerpt: as §4, with “An overlay of CAMHB containing a cephalosporin was added to the compounds at a final static concentration of 8 μg/ml.” left out

T1 sequence (P0A3M1 22-286): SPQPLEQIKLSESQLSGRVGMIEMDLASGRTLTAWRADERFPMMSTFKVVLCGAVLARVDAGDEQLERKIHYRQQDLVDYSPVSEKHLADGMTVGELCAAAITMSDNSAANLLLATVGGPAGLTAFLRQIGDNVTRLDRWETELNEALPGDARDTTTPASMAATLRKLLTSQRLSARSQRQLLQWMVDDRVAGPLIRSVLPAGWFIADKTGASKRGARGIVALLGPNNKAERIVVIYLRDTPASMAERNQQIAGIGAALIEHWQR
T2 sequence (Q9F663 25-293 limits assumed): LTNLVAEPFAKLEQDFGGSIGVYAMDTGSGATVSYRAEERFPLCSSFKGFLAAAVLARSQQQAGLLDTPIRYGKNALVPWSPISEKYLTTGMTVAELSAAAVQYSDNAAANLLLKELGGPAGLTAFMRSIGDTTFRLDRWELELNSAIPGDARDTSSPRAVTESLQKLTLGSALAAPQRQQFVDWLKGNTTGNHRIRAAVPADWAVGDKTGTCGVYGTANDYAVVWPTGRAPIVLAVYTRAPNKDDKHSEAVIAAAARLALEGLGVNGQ
T3 sequence (Q9EXV5 entry or part of it): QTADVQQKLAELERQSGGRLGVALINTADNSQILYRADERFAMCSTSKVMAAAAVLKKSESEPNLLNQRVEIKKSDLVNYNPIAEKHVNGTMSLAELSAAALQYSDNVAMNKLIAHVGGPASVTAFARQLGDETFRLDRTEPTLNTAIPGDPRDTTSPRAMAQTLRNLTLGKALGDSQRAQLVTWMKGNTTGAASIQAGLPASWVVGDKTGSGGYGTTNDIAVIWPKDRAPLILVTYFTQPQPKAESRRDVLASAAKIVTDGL
T4 sequence (P05364 21-381): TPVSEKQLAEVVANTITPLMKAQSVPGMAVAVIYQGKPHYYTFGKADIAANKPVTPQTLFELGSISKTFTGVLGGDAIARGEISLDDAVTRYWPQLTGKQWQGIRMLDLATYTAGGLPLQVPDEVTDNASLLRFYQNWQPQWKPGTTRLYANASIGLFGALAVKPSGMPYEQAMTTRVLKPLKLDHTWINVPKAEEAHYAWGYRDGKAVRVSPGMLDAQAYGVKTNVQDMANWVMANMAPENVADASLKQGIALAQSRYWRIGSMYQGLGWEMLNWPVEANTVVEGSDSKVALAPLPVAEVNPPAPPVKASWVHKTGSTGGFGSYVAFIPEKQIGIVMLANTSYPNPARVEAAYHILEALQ

SMILES | IC50 [1] [nM] | IC50 [2] [nM] | MIC of example compound, E. coli SHV-5 + 8 μg/mL CAZ [3] | IC50 [4] [nM] | MIC of example compound, K. pneumoniae KPC-2 + 8 μg/mL CAZ [5] | IC50 [6] [nM] | MIC of example compound, K. pneumoniae CTX-M-15 + 8 μg/mL CAZ [7]
COc1ccccc1C(=O)N[C@@H](Cc1cccc(C(=O)O)c1O)B(O)O [Example 34, (1R)-1-(2-methoxybenzoylamino)-2-(2-hydroxy-3-carboxyphenyl)ethyl-1-boronic acid] | 100 to 1000 | 10 to 100 | A (A represents an MIC >8 μg/mL) | < 10 | C (C represents an MIC of <1 μg/mL) | < 10 | –
O=C(Cn1cccn1)N[C@@H](Cc1cccc(C(=O)O)c1O)B(O)O [Example 40, (1R)-1-(Pyrazol-1-yl-acetylamino)-2-(2-hydroxy-3-carboxyphenyl)ethyl-1-boronic acid] | 10 to 100 | 10 to 100 | – | 10 to 100 | C (C represents an MIC of <1 μg/mL) | 10 to 100 | C (C represents an MIC of <1 μg/mL)
O=C(N[C@@H](Cc1cccc(C(=O)O)c1O)B(O)O)c1ccc(N2CCOCC2)nc1 [Example 48, (1R)-1-(6-morpholin-4-yl-pyridine-3-carbonyl)-amino-1-(3-carboxy-2-hydroxy)benzyl-methylboronic acid] | 100 to 1000 | < 10 | A (A represents an MIC >8 μg/mL) | < 10 | C (C represents an MIC of <1 μg/mL) | 10 to 100 | –
O=C(CNC(=O)c1ccccc1)N[C@@H](Cc1cccc(C(=O)O)c1O)B(O)O [Example 50, (1R)-1-(Hippuric amido)-2-(2-hydroxy-3-carboxyphenyl)ethyl-1-boronic acid] | < 10 | < 10 | – | < 10 | C (C represents an MIC of <1 μg/mL) | < 10 | C (C represents an MIC of <1 μg/mL)
O=C(N[C@@H](Cc1cccc(C(=O)O)c1O)B(O)O)c1cccnc1 [Example 51, (1R)-1-(Nicotinoylamino)-2-(2-hydroxy-3-carboxyphenyl)ethyl-1-boronic acid] | 10 to 100 | < 10 | – | < 10 | C (C represents an MIC of <1 μg/mL) | < 10 | C (C represents an MIC of <1 μg/mL)
Cn1ccc(C(=O)N[C@@H](Cc2cccc(C(=O)O)c2O)B(O)O)n1 [Example 53, (1R)-1-(1-Methyl-1H-pyrazole-3-carbonyl-amino)-2-(2-hydroxy-3-carboxyphenyl)ethyl-1-boronic acid] | 100 to 1000 | < 10 | – | < 10 | C (C represents an MIC of <1 μg/mL) | < 10 | C (C represents an MIC of <1 μg/mL)
O=C(N[C@@H](Cc1cccc(C(=O)O)c1O)B(O)O)c1cncnc1 [Example 60, (1R)-1-(Pyrimidine-5-carbonyl-amino)-2-(2-hydroxyl-3-carboxyphenyl)ethyl-1-boronic acid] | 10 to 100 | < 10 | – | 10 to 100 | C (C represents an MIC of <1 μg/mL) | < 10 | C (C represents an MIC of <1 μg/mL)
O=C(Cc1ccccn1)N[C@@H](Cc1cccc(C(=O)O)c1O)B(O)O.O=CO [Example 61, (1R)-1-(2-Pyridylacetylamino)-2-(2-hydroxy-3-carboxyphenyl)ethyl-1-boronic acid formate salt] | < 10 | 10 to 100 | – | < 10 | C (C represents an MIC of <1 μg/mL) | < 10 | C (C represents an MIC of <1 μg/mL)
CS(=O)(=O)c1ccc(CC(=O)N[C@@H](Cc2cccc(C(=O)O)c2O)B(O)O)cc1 [Example 62, (1R)-1-(2-(4-(methylsulfonyl)phenyl)-acetylamino)-2-(2-hydroxy-3-carboxyphenyl)ethyl-1-boronic acid] | < 10 | < 10 | – | < 10 | C (C represents an MIC of <1 μg/mL) | < 10 | C (C represents an MIC of <1 μg/mL)
